Test results taken from patent publication US8138159B2, “Composition for inhibiting function of human Flt3” (Takara Bio Inc., priority 2003, dated 2012).

Tests used:
Format in all cases: cell-based, human
[1] = test system: EoL1 cells (WT-highly expressing); assay: cell growth activity, Premix WST1 (Example 2)
Description: (§1) The cells placed in a 96-well plate at a density of 2×10^4 cells/well were cultured in an RPMI medium (containing 10% by volume FBS). The cells were transfected with each of the synthesized (10 nM each) siRNAs, and after 20 hours, the cell growth activity was determined with Premix WST1 reagent (trade name, manufactured by TAKARA BIO INC.). Relative growth ability (%) compared with the growth ability of the control (cells subjected to transfection without adding an siRNA) was determined. Each experiment was carried out with n=3, and the mean was determined.

[2] = test system: HL60 cells (WT-low expressing); assay: cell growth activity, Premix WST1 (Example 2)
Description: as §1

[3] = test system: MV4-11 cells (ITD mutation-highly expressing); assay: cell growth activity, Premix WST1 (Example 2)
Description: as §1

[4] = test system: Flt3 mRNA highly expressing cells; assay: cell growth activity, Premix WST1 (Example 2), stated for highly expressing cells together; conditions: regardless of presence or absence of ITD mutation, read-out: IC50 (50% inhibition concentration) of growth
[5] = test system: MV4-11 (ITD mutation) cells; assay: growth inhibition by siRNA3 in combination with kinase inhibitor AG1295, WST-1 (Example 4); conditions: siRNA3 alone, 1.2 μM at electroporation, 0 μM AG1295, 72 hours
Description: The growth inhibitory activity of treatment with a combination of the composition (synthesized siRNA3) of the present invention and a kinase inhibitor on MV4-11 (ITD mutation) cells was examined. The synthesized siRNA3 used was the same as in item (1) of Example 1 above. As the kinase inhibitor, AG1295 (manufactured by CALBIOCHEM) having high specificity to ITD mutation cells was used.
In the same manner as in item (2) of Example 1 above, MV4-11 cells were cultured at 37° C. for 24 hours in a medium obtained by supplementing 10% by volume fetal bovine serum (FBS) to an RPMI 1640 medium (manufactured by TAKARA BIO INC.) (referred to hereinafter as a culture medium) in the presence of 5% by volume CO2. Then, the MV4-11 cells (1×10^6 cells/ml) suspended in Opti-MEM (trade name, manufactured by Invitrogen) were transferred to a cuvette (manufactured by BIO RAD; gap of 4 mm), and siRNA3 was added to the cuvette so as to give a final concentration of 1.2 μM. Then, the cuvette was set in Gene Pulser Xcell (trade name, manufactured by BIO RAD) and thereafter pulsed with electric field intensity of 650 V/cm for 25 msec. Then, the suspension of the cells in the cuvette was added to, and suspended in, a 4-fold excess volume of the culture medium and dispensed onto a 96-well plate so as to give an amount of 100 μl/well. […]
4 mM AG1295 (dissolved in DMSO) was diluted with the above-mentioned culture medium to prepare AG1295 dilutions at a concentration of 10 μM, 6 μM and 0 μM (0.25% by volume DMSO) and added so as to give an amount of 100 μl/well to the 96-well plate prepared in step (2) above and cultured at 37° C. in the presence of 5% by volume CO2. Seventy-two hours after the culture was initiated, the growth activity of the cells was determined using Premix WST-1 reagent (trade name, manufactured by TAKARA BIO INC.) according to a manufacturer's protocol. Each experiment was carried out with n=6, and the mean was determined. The relative growth ratio (%) to the growth ability of the cells transfected with the control siRNA/0 μM AG1295 was determined. […]

[6] = test system: MV4-11 (ITD mutation) cells; assay: cell growth with siRNA alone or siRNA cocktail, WST-1 (Example 7); conditions: final concentration 1.2 μM, electroporation, 72 hours, n=6 mean
Description: As the composition of the present invention, a cocktail containing the synthesized siRNA1, 2 and 3, or siRNA3 alone, was examined for its growth inhibitory activity on MV4-11 (ITD mutation) cells. The synthesized siRNA1, 2 and 3 used were the same as in item (1) of Example 1 above.
A medium for MV4-11 cells used was the same as in item (2) of above Example 1, and the cells were cultured at 37° C. for 24 hours in an RPMI 1640 medium (manufactured by TAKARA BIO INC.) supplemented with 10% by volume fetal bovine serum (FBS) (referred to hereinafter as the culture medium) in the presence of 5% by volume CO2. Then, transfection of the cells with the synthesized siRNA3 was carried out in the following manner. […]
The cells added in an amount of 100 μl/well on the 96-well plate prepared in item (2) above were cultured at 37° C. in the presence of 5% by volume CO2. Seventy-two hours after the culture was initiated, the growth activity of the cells was determined using Premix WST-1 reagent (manufactured by TAKARA BIO INC.) according to a manufacturer's protocol. Each experiment was carried out with n=6, and the mean was determined. The relative growth ratio (%) as compared with the growth ability of the cells transfected with the control siRNA was determined.

[7] = siRNA 10 nM, after 20 hours, n=3 mean, control = transfection without siRNA

“siRNA3: siRNA to juxtamembrane region (Flt3/JMD region) (target SEQ ID NO: 7); sense SEQ ID NO: 8, antisense SEQ ID NO: 9 (sense UAUGAAUAUGAUCUCAAAUTT; antisense AUUUGAGAUCAUAUUCAUATT; chemistry not given here)” was tested, and the “Ratio of cell-growth activation defining RNA interference effect in HL60 as 1” value (shortened to “Ratio … as 1”) [1] was “(0.50)”, the “Relative growth ability (%) compared with the control” value (“Relative growth ability (%)” below) [1, 7] was 45.1% and the “Ratio … as 1” value ([2]; HL60, the reference itself) was “(1)”. For the same substance, the “Relative growth ability (%)” value ([2]; HL60, siRNA 10 nM, after 20 hours, n=3 mean, control = transfection without siRNA) was 90.3%, the “Ratio … as 1” value [3] was “(0.41)” and the “Relative growth ability (%)” value [3, 7] was 37.5%. The IC50 [4] was 10 nM, the “growth inhibition as compared with the cells transfected with the control siRNA/0 μM AG1295” value [5] was 83.7% and the “relative growth ratio (%) as compared with the cells transfected with the control siRNA (growth inhibition to)” value [6] was 46.5%.
